We go through four molecules from article doi:10.1101/2024.02.28.582502, “Magnesium Transporter MgtA revealed as a Dimeric P-type ATPase” (bioRxiv, 2024).

The target in data set [1] is T1, MgtA (Escherichia coli, UniProt P0ABB8).
T1 construct: full length, 898 aa, 100 kDa; pETDuet-1-MgtAS (co-expressed with MgtS, no MgtS density seen), E. coli C43(DE3); Ni-NTA and SEC in GDN; predominantly homodimer for cryo-EM, predominantly monomer in DDM for HDX-MS
T1 sequence (P0ABB8 1-898): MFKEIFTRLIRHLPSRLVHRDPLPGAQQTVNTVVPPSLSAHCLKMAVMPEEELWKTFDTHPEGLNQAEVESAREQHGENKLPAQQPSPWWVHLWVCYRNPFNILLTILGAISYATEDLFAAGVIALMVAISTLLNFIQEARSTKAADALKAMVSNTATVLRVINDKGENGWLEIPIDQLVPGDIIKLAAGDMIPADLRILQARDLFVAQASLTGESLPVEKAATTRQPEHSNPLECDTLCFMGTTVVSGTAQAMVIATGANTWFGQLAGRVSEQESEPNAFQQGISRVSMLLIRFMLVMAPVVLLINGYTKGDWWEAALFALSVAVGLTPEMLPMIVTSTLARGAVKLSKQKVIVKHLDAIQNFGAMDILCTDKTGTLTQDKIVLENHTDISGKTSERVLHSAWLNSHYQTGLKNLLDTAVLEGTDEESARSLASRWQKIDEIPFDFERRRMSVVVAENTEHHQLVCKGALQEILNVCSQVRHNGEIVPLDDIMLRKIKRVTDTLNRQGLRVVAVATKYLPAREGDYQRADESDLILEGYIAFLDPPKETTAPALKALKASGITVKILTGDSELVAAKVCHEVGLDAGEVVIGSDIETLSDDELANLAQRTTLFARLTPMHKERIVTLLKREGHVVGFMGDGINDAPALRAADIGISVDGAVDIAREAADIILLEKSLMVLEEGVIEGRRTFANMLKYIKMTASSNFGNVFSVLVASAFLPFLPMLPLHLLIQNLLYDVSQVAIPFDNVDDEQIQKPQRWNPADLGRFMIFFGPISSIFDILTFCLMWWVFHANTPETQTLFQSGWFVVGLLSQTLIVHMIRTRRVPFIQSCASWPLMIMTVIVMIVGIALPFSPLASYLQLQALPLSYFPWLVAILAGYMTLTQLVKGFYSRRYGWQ
The data set is described as follows: cryo-EM structure ([…] Å); HDX-MS. Conditions: cryo-EM: 5 mM ATPγS, 5 mM MgCl2, pH 7.5, GDN, dimer, nucleotide binding site; HDX-MS: 5 mM ATPγS, 5 mM MgSO4, DDM, mainly monomer.

In data set [2] the target is T1, MgtA. The data set is described as follows: cryo-EM map density ([…] Å), ligand not modelled. Conditions: 5 mM ADP, 5 mM MgCl2, pH 7.5, GDN, dimer, nucleotide binding site.
Data set [3] deals with T1, MgtA. Put plainly: cryo-EM structure ([…] Å); HDX-MS. The settings on record: cryo-EM: 5 mM ATP, 5 mM MgCl2, pH 7.5, GDN, dimer, nucleotide binding site; HDX-MS: 5 mM ATP, 5 mM MgSO4, DDM, mainly monomer.
Data set [4] deals with the molecule itself. The data set is described as follows: cryo-EM structure; single-particle cryo-EM of GDN-purified MgtA, 5 mM MgCl2, 0.007% GDN; without nucleotide or with 5 mM ATP, ATPγS or ADP.

As to `Nc1ncnc2c1ncn2[C@@H]1O[C@H](COP(=O)(O)OP(=O)(O)OP(O)(O)=S)[C@@H](O)[C@H]1O` [ATPγS], the “cryo-EM structure (3.87 Å); HDX-MS” value at MgtA [1] is “MgtA with ATPγS, though resolved at slightly lower resolution, was structurally similar to MgtA with ATP”.
For `Nc1ncnc2c1ncn2[C@@H]1O[C@H](COP(=O)(O)OP(=O)(O)O)[C@@H](O)[C@H]1O` [ADP], on MgtA [2], the “cryo-EM map density (3.75 Å), ligand not modelled” value is recorded as “some ADP can enter the nucleotide binding pocket but cannot be bound as tightly”.
As to `Nc1ncnc2c1ncn2[C@@H]1O[C@H](COP(=O)(O)OP(=O)(O)OP(=O)(O)O)[C@@H](O)[C@H]1O` [ATP], the “cryo-EM structure (3.72 Å); HDX-MS” value at MgtA [3] was “Cryo-EM structures of the MgtA dimer bound to the ligands ATP, ATPgS, and ADP”.

B1: Escherichia coli magnesium transporter MgtA (from pETDuet-1-MgtAS, co-overexpressed with MgtS) (natural protein)
chain: T1 sequence (P0ABB8 1-898)
notes: MgtA, E. coli, P-type ATPase Mg2+ transporter, 100 kDa, 898 amino acids; residues from the N-terminal tail (1-36) on are modelled in the dimer structure; That the His tag stands on MgtA is inferred from its elution from Ni-NTA; also called EcMgtA; MgtAS (the purified sample); source: E. coli C43 (DE3), pETDuet-1-MgtAS, co-overexpressed with MgtS; membranes solubilised with 1% GDN (or DDM, LMNG); …
Broadly, the stoichiometry N is a count of units in the complex or per binding partner. Turning to B1, in data set [4], the “stoichiometry N” value is 2.
